According to ChEMBL document CHEMBL1201862, “PubChem BioAssay data set” (2004):
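96-well plates; 48 h exposure; 5 concentrations. Endpoints by linear interpolation between flanking doses. Not reached: highest tested concentration assigned. GI50 marks 50% less growth.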 Active and inactive are the calls of the source. No stated cut-off is given here; in the data, active = GI50 up to about 1.1 µM and inactive = higher.

Key:
Assay in all cases: DTP human tumour cell line panel, 48 h
[1] = test system: DLD-1
[2] = test system: DMS-114
[3] = test system: DMS-273
[4] = test system: KM-20L2
[5] = test system: LXFL 529
[6] = test system: M19-MEL
[7] = test system: XF498
[8] = test system: RXF 631
[9] = test system: HOP-18

Row | SMILES | GI50 [1] | GI50 [2] | GI50 [3] | GI50 [4] | GI50 [5] | GI50 [6] | GI50 [7] | GI50 [8] | GI50 [9]
1 | CC(=O)OC1COC(N2CCc3cc([N+](=O)[O-])ccc32)C(OC(C)=O)C1OC(C)=O (centres undefined) | > 100 µM (inactive) | > 100 µM (inactive) | > 100 µM (inactive) | > 100 µM (inactive) | > 100 µM (inactive) | > 100 µM (inactive) | 50.4 µM (inactive) |  | 
2 | CC(=O)OC1(C#N)CC2OC1C1C2N1C(=O)c1ccccc1 (centres undefined) | > 100 µM (inactive) | > 100 µM (inactive) |  | > 100 µM (inactive) | > 100 µM (inactive) | > 100 µM (inactive) | > 100 µM (inactive) | > 100 µM (inactive) | 
3 | CC(C(=O)N1C(=O)N(C(=O)C(C)C(O)c2ccccc2)C2CCCCC21)C(O)c1ccccc1 (centres undefined) |  |  | > 100 µM (inactive) | > 100 µM (inactive) | 44.1 µM (inactive) | 83.8 µM (inactive) | 79.6 µM (inactive) |  | 
4 | N#CC(C(=O)CCC(=O)Nc1cccc(Cl)c1)c1ccccc1 (centres undefined) | > 100 µM (inactive) | > 100 µM (inactive) | > 100 µM (inactive) | > 100 µM (inactive) | > 100 µM (inactive) | > 100 µM (inactive) |  | > 100 µM (inactive) | > 100 µM (inactive)
5 | Cc1[nH]c2cc([N+](=O)[O-])ccc2c1[N+](=O)[O-] | 22.6 µM (inactive) | 9.93 µM (inactive) |  | 27.4 µM (inactive) | 17.2 µM (inactive) |  | 20.7 µM (inactive) |  | 
6 | CCCOC(=O)C1C(c2ccc(OC)cc2)NC(c2ccc(OC)cc2)C(C(=O)OCCC)S1(=O)=O (centres undefined) | > 10 µM (inactive) | > 10 µM (inactive) | > 10 µM (inactive) | > 10 µM (inactive) | > 10 µM (inactive) |  | 9.18 µM (inactive) | > 10 µM (inactive) | > 10 µM (inactive)
7 | O=c1nc2occc2cn1C1CC(O)C(CO)O1 (centres undefined) | > 100 µM (inactive) | > 100 µM (inactive) | > 100 µM (inactive) | > 100 µM (inactive) | > 100 µM (inactive) | > 100 µM (inactive) | > 100 µM (inactive) | > 100 µM (inactive) | > 100 µM (inactive)
8 | CCCCN[C@H]1C2C3CC4C5CC(C42)C1(C)C53 (some centres undefined) | > 100 µM (inactive) | > 100 µM (inactive) | > 100 µM (inactive) | > 100 µM (inactive) | > 100 µM (inactive) | > 100 µM (inactive) |  |  | > 100 µM (inactive)
9 | Cc1cc(NCCCCCCCNc2cc(C)nc3cc(N)ccc23)c2ccc(N)cc2n1 | 28.8 µM (inactive) | 1.57 µM (inactive) |  | 34.2 µM (inactive) | 26.5 µM (inactive) | 32.2 µM (inactive) | 17.2 µM (inactive) |  | 
10 | N/N=C1\C(=O)N(c2ccc(Cl)c(Cl)c2)C(=O)C1C(=O)Nc1ccc(Cl)c(Cl)c1 (centres undefined) | 64 µM (inactive) | 57.5 µM (inactive) |  | 48.4 µM (inactive) | 46.5 µM (inactive) | > 100 µM (inactive) |  | 59.2 µM (inactive) | 21.6 µM (inactive)
11 | COC(=O)CCC(NC(=S)N/N=C(\C)c1ccc[nH]1)C(=O)OC (centres undefined) | > 100 µM (inactive) | > 100 µM (inactive) | > 100 µM (inactive) | > 100 µM (inactive) | > 100 µM (inactive) | > 100 µM (inactive) | > 100 µM (inactive) |  | > 100 µM (inactive)
12 | O=C1C(c2ccc(Br)cc2)=[N+]([O-])c2ccccc21 | 8.51 µM (inactive) | 3.94 µM (inactive) |  | 20.7 µM (inactive) | 5.16 µM (inactive) | 9.62 µM (inactive) | 17.5 µM (inactive) |  | 11.9 µM (inactive)
13 | NC(=S)N1N=C2c3ccccc3CC[C@H]2[C@@H]1c1ccc(Cl)cc1 | 31.7 µM (inactive) | 23.9 µM (inactive) | 24.7 µM (inactive) | 29.8 µM (inactive) | 21.2 µM (inactive) | 30.6 µM (inactive) | 26.4 µM (inactive) |  | 18.6 µM (inactive)
14 | CC(=O)/C=C1/c2ccccc2N(C(C)=O)C1O (centres undefined) | > 100 µM (inactive) | > 100 µM (inactive) | > 100 µM (inactive) | > 100 µM (inactive) | > 100 µM (inactive) | > 100 µM (inactive) |  |  | > 100 µM (inactive)
15 | O=C1NC(=S)NC(=O)C1=Cc1cc2c(cc1[N+](=O)[O-])OCO2 | 67.3 µM (inactive) | 36.8 µM (inactive) | 63.1 µM (inactive) | > 100 µM (inactive) |  | > 100 µM (inactive) |  | 97.3 µM (inactive) | > 100 µM (inactive)
16 | Cc1cc(C)c(N)c(C)c1N | > 100 µM (inactive) | > 100 µM (inactive) | > 100 µM (inactive) | > 100 µM (inactive) | > 100 µM (inactive) | > 100 µM (inactive) |  |  | > 100 µM (inactive)
17 | COc1ccc(CCN2CCC(C#N)(c3ccc(OC)c(OC)c3)CC2)cc1OC | > 100 µM (inactive) | 60.4 µM (inactive) | > 100 µM (inactive) | > 100 µM (inactive) | > 100 µM (inactive) | > 100 µM (inactive) | 50.2 µM (inactive) |  | > 100 µM (inactive)
18 | C=CCN(N=O)C(=O)NCCCCC(NC(C)=O)C(=O)NCc1ccccc1 (centres undefined) |  | > 100 µM (inactive) | > 100 µM (inactive) | > 100 µM (inactive) | > 100 µM (inactive) | > 100 µM (inactive) | > 100 µM (inactive) | > 100 µM (inactive) | 80.7 µM (inactive)
19 | C=C(CN(C)C)C(=O)c1cc(C)ccc1C | 2.28 µM (inactive) | 5.02 µM (inactive) | 11.7 µM (inactive) | 23 µM (inactive) | 1.62 µM (inactive) | 4.81 µM (inactive) | 17.9 µM (inactive) |  | 4.13 µM (inactive)
20 | CNC(=S)OCCC(C)CCCC(C)C (centres undefined) | 15.5 µM (inactive) |  | 16.8 µM (inactive) | 16.3 µM (inactive) | 15.8 µM (inactive) | 19.3 µM (inactive) | 17 µM (inactive) |  | 15.3 µM (inactive)
21 | COC(=O)c1ccc(N/C=C(/C#N)c2ccsc2)cc1 | 13 µM (inactive) | 15 µM (inactive) | 14.8 µM (inactive) | 12 µM (inactive) | 12.8 µM (inactive) | 34 µM (inactive) |  |  | 
22 | CC12Nc3ccccc3C1=C(c1ccccc1)CC1C(=O)OC(=O)C12 (centres undefined) | > 100 µM (inactive) | > 100 µM (inactive) | > 100 µM (inactive) | > 100 µM (inactive) | > 100 µM (inactive) | > 100 µM (inactive) | > 100 µM (inactive) | > 100 µM (inactive) | 
23 | O=C1CCC(=O)N1Sc1ccccc1 | > 100 µM (inactive) | > 100 µM (inactive) | > 100 µM (inactive) | > 100 µM (inactive) |  | > 100 µM (inactive) |  | > 100 µM (inactive) | 
24 | COc1ccc(C2=C(Cl)c3cc(OC)c(OC)cc3C2OC)cc1OC (centres undefined) | 17.9 µM (inactive) | 14.2 µM (inactive) | 27.4 µM (inactive) | > 100 µM (inactive) | 52.7 µM (inactive) | > 100 µM (inactive) | > 100 µM (inactive) |  | > 100 µM (inactive)
25 | O=NN(CCCl)C(=O)N[C@H]1CCCC[C@@H]1Cl | > 100 µM (inactive) | 34.2 µM (inactive) | 62.7 µM (inactive) | > 100 µM (inactive) | > 100 µM (inactive) | 39.7 µM (inactive) | > 100 µM (inactive) |  | > 100 µM (inactive)
26 | COc1ccc(/C=C2/C(=O)N(C(=O)c3ccccc3O)N=C2C)cc1OC | 0.23 µM (active) | 0.301 µM (active) |  | 24.9 µM (inactive) | 0.303 µM (active) | 1.29 µM (inactive) | 1.68 µM (inactive) |  | 
27 | O=CN/C=C/c1cccc(O)c1 | > 100 µM (inactive) | > 100 µM (inactive) | > 100 µM (inactive) | > 100 µM (inactive) | > 100 µM (inactive) | > 100 µM (inactive) | > 100 µM (inactive) |  | > 100 µM (inactive)
28 | NCCCNc1ccc2c3c(nn2CCNCCO)-c2c(O)ccc(O)c2C(=O)c13 | 4.08 µM (inactive) | 0.561 µM (active) | 0.366 µM (active) | 2.89 µM (inactive) |  | 1.5 µM (inactive) | 0.125 µM (active) |  | 2.32 µM (inactive)
29 | CC(C)c1cccc(C(C)C)c1NC(=O)C(=O)CC(=O)CC(c1ccccc1)c1c(O)oc2ccccc2c1=O (centres undefined) | > 100 µM (inactive) | > 100 µM (inactive) |  | > 100 µM (inactive) |  |  |  |  | 
